Assay results taken from patent publication US12599582B2, “Pyrrole compounds” (ALIGOS THERAPEUTICS, INC., priority 2019, dated 2026).

Test system: HBV
Assay: HBV-DNA Antiviral Assay Using HepG2.2.15 Cells (extracellular HBV DNA by qPCR)
Format: cell-based, hepatitis B virus (HBV)
Conditions: HBV DNA inhibition, HepG2.2.15 cells, extracellular HBV DNA by qPCR; read-out: EC50
In short: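 HepG2.2.15 cells were treated on day 1 with 8 concentrations (4-fold dilutions, duplicate; 0.5% DMSO), with compound-containing medium refreshed on day 4, at 37 °C. On day 7, supernatant HBV DNA was measured by qPCR against a plasmid standard curve, with inhibition normalised between DMSO and ETV controls. EC50/EC90 and CC50 (CellTiter-Glo ATP) came from variable-slope fits.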

SMILES	EC50 [nM]
Cc1c(C(=O)C(=O)NC2(c3cnn(C4CC4)n3)CC(F)(F)C2)c(C)n(C)c1C(=O)Nc1ccc(F)c(C(F)(F)F)c1 [Compound 142, 4-[2-[[1-(2-cyclopropyltriazol-4-yl)-3,3-difluoro-cyclobutyl]amino]-2-oxo-acetyl]-N-[4-fluoro-3-(trifluoromethyl)phenyl]-1,3,5-trimethyl-pyrrole-2-carboxamide]	1 to 10
Cc1c(C(=O)C(=O)NC2(c3cn(C4CC4)nn3)CC(F)(F)C2)c(C)n(C)c1C(=O)Nc1ccc(F)c(C(F)(F)F)c1 [Compound 146, 4-[2-[[1-(1-cyclopropyltriazol-4-yl)-3,3-difluoro-cyclobutyl]amino]-2-oxo-acetyl]-N-[4-fluoro-3-(trifluoromethyl)phenyl]-1,3,5-trimethyl-pyrrole-2-carboxamide]	1 to 10
Cc1c(C(=O)C(=O)NC(C)(C)c2ccc(F)cn2)c(C)n(C)c1C(=O)Nc1ccc(F)c(C(F)(F)F)c1 [Compound 147, 4-[2-[[l-(5-fluoro-2-pyridyl)-1-methyl-ethyl]amino]-2-oxo-acetyl]-N-[4-fluoro-3-(trifluoromethyl)phenyl]-1,3,5-trimethyl-pyrrole-2-carboxamide]	1 to 10

Same assay, conditions: Hepatitis B virus; HBV DNA inhibition, HepG2.2.15 cells, extracellular HBV DNA by qPCR; read-out: EC50

SMILES	EC50 [nM]
Cc1c(C(=O)C(=O)NC2(C#CC3(O)CC3)COC2)c(C)n(C)c1C(=O)Nc1ccc(F)c(C#N)c1 [Compound 102, N-(3-cyano-4-fluoro-phenyl)-4-[2-[[3-[2-(1-hydroxycyclopropyl)ethynyl]oxetan-3-yl]amino]-2-oxo-acetyl]-1,3,5-trimethyl-pyrrole-2-carboxamide]	1 to 10
Cc1c(C(=O)C(=O)NC(C)(C)c2nccs2)c(C)n(C)c1C(=O)Nc1ccc(F)c(C(F)(F)F)c1 [Compound 103, N-[4-fluoro-3-(trifluoromethyl)phenyl]-1,3,5-trimethyl-4-[2-[(1-methyl-1-thiazol-2-yl-ethyl)amino]-2-oxo-acetyl]pyrrole-2-carboxamide]	1 to 10
Cc1c(C(=O)C(=O)NC(C)(C)c2c[nH]cn2)c(C)n(C)c1C(=O)Nc1ccc(F)c(C#N)c1 [Compound 104, N-(3-cyano-4-fluoro-phenyl)-4-[2-[[1-(1H-imidazol-4-yl)-1-methyl-ethyl]amino]-2-oxo-acetyl]-1,3,5-trimethyl-pyrrole-2-carboxamide]	1 to 10
C#CC1(N(COC(=O)[C@@H](N)C(C)C)C(=O)C(=O)c2c(C)c(C(=O)Nc3ccc(F)c(C#N)c3)n(C)c2C)COC1 [Compound 105, [[2-[5-[(3-cyano-4-fluoro-phenyl)carbamoyl]-1,2,4-trimethyl-pyrrol-3-yl]-2-oxo-acetyl]-(3-ethynyloxetan-3-yl)amino]methyl-(2S)-2-amino-3-methyl-butanoate]	1 to 10
Cc1c(C(=O)C(=O)NC(C)(C)c2c[nH]cn2)c(C)n(C)c1C(=O)Nc1ccc(F)c(C(F)(F)F)c1 [Compound 106, N-[4-fluoro-3-(trifluoromethyl)phenyl]-4-[2-[[1-(1H-imidazol-4-yl)-1-methyl-ethyl]amino]-2-oxo-acetyl]-1,3,5-trimethyl-pyrrole-2-carboxamide]	1 to 10
C#CC1(NC(=O)C(=O)c2c(C)c(C(=O)Nc3ccc(F)c(C#N)c3)n(C)c2C)CCOCC1 [Compound 107, N-(3-cyano-4-fluoro-phenyl)-4-[2-[(4-ethynyltetrahydropyran-4-yl)amino]-2-oxo-acetyl]-1,3,5-trimethyl-pyrrole-2-carboxamide]	1 to 10
C#CC1(NC(=O)C(=O)c2c(C)c(C(=O)Nc3ccc(F)c(C#N)c3)n(C)c2C)CCS(=O)(=O)CC1 [Compound 108, N-(3-cyano-4-fluoro-phenyl)-4-[2-[(4-ethynyl-1,1-dioxo-thian-4-y1)amino]-2-oxo-acetyl]-1,3,5-trimethyl-pyrrole-2-carboxamide]	1 to 10
C#CC1(NC(=O)C(=O)c2c(C)c(C(=O)Nc3ccc(F)c(C#N)c3)n(C)c2C)CCCC1 [Compound 109, N-(3-cyano-4-fluoro-phenyl)-4-[2-[(1-ethynylcyclopentyl)amino]-2-oxo-acetyl]-1,3,5-trimethyl-pyrrole-2-carboxamide]	1 to 10
Cc1c(C(=O)C(=O)NC(C)(C)c2ncc[nH]2)c(C)n(C)c1C(=O)Nc1ccc(F)c(C#N)c1 [Compound 131, N-(3-cyano-4-fluoro-phenyl)-4-[2-[[1-(1H-imidazol-2-yl)-1-methyl-ethyl]amino]-2-oxo-acetyl]-1,3,5-trimethyl-pyrrole-2-carboxamide]	1 to 10
Cc1c(C(=O)C(=O)NC(C)(C)c2ncc[nH]2)c(C)n(C)c1C(=O)Nc1ccc(F)c(C(F)(F)F)c1 [Compound 132, N-[4-fluoro-3-(trifluoromethyl)phenyl]-4-[2-[[1-(1H-imidazol-2-yl)-1-methyl-ethyl]amino]-2-oxo-acetyl]-1,3,5-trimethyl-pyrrole-2-carboxamide]	1 to 10
C#CC1(NC(=O)C(=O)c2c(C)c(C(=O)Nc3ccc(Cl)c(Br)c3)n(C)c2C)CC(F)(F)C1 [Compound 133, N-(3-bromo-4-chloro-phenyl)-4-[2-[(1-ethynyl-3,3-difluoro-cyclobutyl)amino]-2-oxo-acetyl]-1,3,5-trimethyl-pyrrole-2-carboxamide]	1 to 10
C#CC1(NC(=O)C(=O)c2c(C)c(C(=O)Nc3ccc(Br)c(Cl)c3)n(C)c2C)CC(F)(F)C1 [Compound 134, N-(4-bromo-3-chloro-phenyl)-4-[2-[(1-ethynyl-3,3-difluoro-cyclobutyl)amino]-2-oxo-acetyl]-1,3,5-trimethyl-pyrrole-2-carboxamide]	1 to 10
Cc1c(C(=O)C(=O)NC(C)(C)c2cnn(C3CC3)c2)c(C)n(C)c1C(=O)Nc1ccc(F)c(C#N)c1 [Compound 135, N-(3-cyano-4-fluoro-phenyl)-4-[2-[[1-(1-cyclopropylpyrazol-4-yl)-1-methyl-ethyl]amino]-2-oxo-acetyl]-1,3,5-trimethyl-pyrrole-2-carboxamide]	1 to 10
Cc1c(C(=O)C(=O)NC(C)(C)c2cnn(C3CC3)c2)c(C)n(C)c1C(=O)Nc1ccc(F)c(C(F)(F)F)c1 [Compound 136, 4-[2-[[1-(1-cyclopropylpyrazol-4-yl)-1-methyl-ethyl]amino]-2-oxo-acetyl]-N-[4-fluoro-3-(trifluoromethyl)phenyl]-1,3,5-trimethyl-pyrrole-2-carboxamide]	1 to 10
Cc1c(C(=O)C(=O)NC(C)(C)c2ccnn2C)c(C)n(C)c1C(=O)Nc1ccc(F)c(C#N)c1 [Compound 137, N-(3-cyano-4-fluoro-phenyl)-1,3,5-trimethyl-4-[2-[[1-methyl-1-(2-methylpyrazol-3-yl)ethyl]amino]-2-oxo-acetyl]pyrrole-2-carboxamide]	1 to 10
Cc1c(C(=O)C(=O)NC(C)(C)c2ccnn2C)c(C)n(C)c1C(=O)Nc1ccc(F)c(C(F)(F)F)c1 [Compound 138, N-[4-fluoro-3-(trifluoromethyl)phenyl]-1,3,5-trimethyl-4-[2-[[1-methyl-1-(2-methylpyrazol-3-yl)ethyl]amino]-2-oxo-acetyl]pyrrole-2-carboxamide]	1 to 10
Cc1c(C(=O)C(=O)NC(C)(C)c2nnco2)c(C)n(C)c1C(=O)Nc1ccc(F)c(C#N)c1 [Compound 139, N-(3-cyano-4-fluoro-phenyl)-1,3,5-trimethyl-4-[2-[[1-methyl-1-(1,3,4-oxadiazol-2-yl)ethyl]amino]-2-oxo-acetyl]pyrrole-2-carboxamide]	1 to 10
Cc1c(C(=O)C(=O)NC(C)(C)c2cscn2)c(C)n(C)c1C(=O)Nc1ccc(F)c(C#N)c1 [Compound 140, N-(3-cyano-4-fluoro-phenyl)-1,3,5-trimethyl-4-[2-[(1-methyl-1-thiazol-4-yl-ethyl)amino]-2-oxo-acetyl]pyrrole-2-carboxamide]	1 to 10
Cc1c(C(=O)C(=O)NC(C)(C)c2cscn2)c(C)n(C)c1C(=O)Nc1ccc(F)c(C(F)(F)F)c1 [Compound 141, N-[4-fluoro-3-(trifluoromethyl)phenyl]-1,3,5-trimethyl-4-[2-[(1-methyl-1-thiazol-4-yl-ethyl)amino]-2-oxo-acetyl]pyrrole-2-carboxamide]	1 to 10
Cc1c(C(=O)C(=O)NC(C)(C)c2nnco2)c(C)n(C)c1C(=O)Nc1ccc(F)c(C(F)(F)F)c1 [Compound 143, N-[4-fluoro-3-(trifluoromethyl)phenyl]-1,3,5-trimethyl-4-[2-[[1-methyl-1-(1,3,4-oxadiazol-2-yl)ethyl]amino]-2-oxo-acetyl]pyrrole-2-carboxamide]	1 to 10
Cc1c(C(=O)C(=O)NC(C)(C)c2cncnc2)c(C)n(C)c1C(=O)Nc1ccc(F)c(C#N)c1 [Compound 144, N-(3-cyano-4-fluoro-phenyl)-1,3,5-trimethyl-4-[2-[(1-methyl-1-pyrimidin-5-yl-ethyl)amino]-2-oxo-acetyl]pyrrole-2-carboxamide]	1 to 10
Cc1c(C(=O)C(=O)NC(C)(C)c2ccc(F)cn2)c(C)n(C)c1C(=O)Nc1ccc(F)c(C#N)c1 [Compound 145, N-(3-cyano-4-fluoro-phenyl)-4-[2-[[1-(5-fluoro-2-pyridyl)-1-methyl-ethyl]amino]-2-oxo-acetyl]-1,3,5-trimethyl-pyrrole-2-carboxamide]	1 to 10
Cc1c(C(=O)C(=O)NC(C)(C)c2cncnc2)c(C)n(C)c1C(=O)Nc1ccc(F)c(C(F)(F)F)c1 [Compound 148, N-[4-fluoro-3-(trifluoromethyl)phenyl]-1,3,5-trimethyl-4-[2-[(1-methyl-1-pyrimidin-5-yl-ethyl)amino]-2-oxo-acetyl]pyrrole-2-carboxamide]	1 to 10
Cc1c(C(=O)C(=O)NC(C)(C)c2cn(C)cn2)c(C)n(C)c1C(=O)Nc1ccc(F)c(C(F)(F)F)c1 [Compound 149, N-[4-fluoro-3-(trifluoromethyl)phenyl]-1,3,5-trimethyl-4-[2-[[1-methyl-1-(1-methylimidazol-4-yl)ethyl]amino]-2-oxo-acetyl]pyrrole-2-carboxamide]	100 to 1000
